Measured values from US8865672B2, “Prevention of tissue ischemia and related methods” (The United States of America, as represented by the …, priority 2006, dated 2014).
Ends that are not written are not given here. * marks the point of attachment. Biotin = O=C1N[C@H]2[C@H](CS[C@H]2CCCCC(=O)*)N1

Columns and labels:
HUVEC = experiment: NO-stimulated HUVEC adhesion on type I collagen; type: cell-based, human; conditions: DEA/NO 10 μM
Procedure: Cell adhesion was carried out in 96-well culture plates. After pre-coating wells with type I collagen (3 μg/ml in DPBS) harvested cells were plated at a density of 1×10^4 cells/well in medium plus 0.1% BSA and treatment agents and incubated in 5% CO2 for 1 h. Wells were washed with PBS and cells fixed with 1% glutaraldehyde for 10 min., washed and stained with 1% crystal violet for 20 min. Excess stain was rinsed away, adherent cells treated with 10% acetic acid, and plates read at 570 nm.

human platelets [1] = experiment: cGMP in human platelets; type: cell-based; conditions: washed human platelets in Tyrode's buffer
Procedure: Fresh human platelets at 2×10^5 platelets/μl in Tyrode's buffer or PRP were pre-incubated with the indicated agents for 15 minutes and then challenged with DEA/NO for the indicated time interval at room temperature and total cGMP determined via immunoassay (Amersham, GE Healthcare, Buckinghamshire, UK). Murine WT and TSP1-null platelets were treated with DEA/NO and cGMP flux measured.

human platelets [2] = experiment: Thrombin-induced human platelet aggregation; type: cell-based; conditions: high shear
Procedure: Platelets were pelleted from platelet-rich plasma (PRP) by centrifugation for 10 minutes at 200 g. They were then washed with acid citrate dextrose (ACD) (85 mM citric acid, 65 mM sodium citrate, 100 mM glucose, pH 5.1) at a ratio of 1:7 at room temperature. After pelleting the platelets again and removing the supernatant, the platelets were resuspended in 5 mL of Tyrode's buffer (137 mM NaCl, 3 mM KCl, 12 mM NaHCO3, 0.3 mM NaHPO4, 2 mM CaCl2, 1 mM MgCl2, 5.5 mM glucose, 5 mM HEPES, 3.5 mg/mL BSA, pH 7.4). The final platelet number was adjusted to […] in 500 μl/cuvette of Tyrode's buffer.
Aggregation of human platelets under high shear conditions was assessed using a standard optical aggregometer (Lumi-Dual Aggregometer, Chrono-Log Corp., Havertown, Pa.) at 37° C. and 1200 rpm in a volume of 500 μl buffer with a final platelet concentration of 2×10^5 platelets/μl over a 5 minute interval. Pre-incubation with TSP1 and TSP1-based agents was for 15 minutes prior to addition of thrombin and/or the rapidly releasing nitric oxide donor DEA/NO. In some experiments platelets were pre-incubated with the Rap1 inhibitor GGTI-298 (10 μM) (Calbiochem, La Jolla, Calif.) for 30 minutes prior to initiating aggregation. In other high shear aggregation experiments murine platelets were prepared as above with the following modifications. Mouse blood was collected by retro-orbital bleeding of anesthetized mice using heparinized tubes. PRP was prepared and then diluted with 4 vol. of Tyrodes containing 5 mM EDTA to prevent activation. After collection by centrifugation, platelets were resuspended in 2× initial PRP volume and held at room temperature for less than 1 hour before use. Aggregation conditions consisted of 250 μL of washed platelets stirred at 1200 rpm in a Chronolog Optical aggregometer at 37° C. DEA/NO (10 μM) was added 30 seconds prior to activation and 8-BrcGMP added 15 min prior to activation with 0.2 U/ml human thrombin. Data was collected using Chronolog “Aggrolink” software. Platelet aggregation under static conditions was assessed using a spectrophotometer (Beckman DU 640, Beckman Coulter, Fullerton, Calif.) and determined as a change in absorbance at 400 nm with continuous observation over a five minute interval. The cuvette was inverted once every 60 seconds. Pre-incubation with TSP1 and TSP1-based agents was for 15 minutes prior to addition of thrombin and/or DEA/NO to minimize the formation of thrombin-serpinthrombospondin complexes (Chang & Detwiler, Arch Biochem Biophys. 299:100-104, 1992), which interfere with thrombin-platelet interactions.
Fresh human platelets were suspended in Tyrode's buffer and under low shear conditions thrombin-stimulated aggregation measured as described. Platelets were then treated with peptide C6d (1 μM)±NO (10 μM DEA/NO) and thrombin and aggregation measure.

[3] = test system: murine ASMC (WT, CD36 null, CD47 null); experiment: Intracellular cGMP in murine ASMC; type: cell-based, mouse
Procedure: Murine ASMC were obtained from aortic segments harvested sterilely from C57B1/6 CD47 null or CD36 null mice as described (Ray et al., Methods Cell Sci 23:185-188, 2001) and cultured in SM-GM (Cambrex)+20% FCS. In the case of CD36 null cells, culture flasks were pre-coated with 1% gelatin prior to cell plating. Wild type C57B1/6 ASMC cultures were prepared as previously described (Isenberg et al., Matrix Biol 24:110-123, 2005). Cell culture purity was determined by immunohistochemistry staining for α-smooth muscle actin. Cells were used within passage 1 to 4 to minimize overgrowth of other cell types.
HUVEC (10^4 cells/well) grown overnight in 96-well culture plates containing full growth medium with 2% FCS and weaned in growth medium without additives and 1% FCS over 24 hrs before treatment with NO donors and other agents in SM-GM without additives+0.1% BSA. Intracellular cGMP levels were determined according to the manufacturer's instructions using an enzyme immunoassay kit (Amersham Biosciences). In other experiments ASMC from wild type and CD36 or CD47 null mice were plated onto 96-well culture plates and incubated overnight in full growth medium. They were then weaned off serum as described to SM-GM+0.1% BSA and treated with NO donor and other agents as indicated. Intracellular cyclic nucleotides were determined via immunoassay.

[4] = test system: vascular cell outgrowth from muscle explants; experiment: Explant invasion assay in 3D collagen; type: cell-based, mouse; conditions: wild type and TSP1 null explants, NO 10 μM, peptides 10 μM, NoC1 0.1 μg/ml, day 7
Procedure: Muscle biopsies from the pectoralis major muscle of 8 to 12 week old wild type or transgenic mice were harvested and explanted into 100 μl of type I collagen gel in 96-well tissue culture plates as described (Isenberg et al., Matrix Biol 24:110-123, 2005). Following gelation, the embedded explants were overlayed with 75 μl of EGM+2% FCS in the presence or absence of a dose range of DETA/NO (0.01-1000 μM) and other indicated treatments and then incubated at 37° C. and 5% CO2 for 7 days, at which time maximum vascular cell migration through the matrix was measured.

[5] = test system: VSMC and endothelial cells; experiment: NO-stimulated adhesion of VSMC and endothelial cells to type I collagen (Example 9); type: cell-based; conditions: 10 μM DEA/NO
Procedure: Vascular cells (VSMC or endothelial) were plated at 10,000 cells/well onto 96-well plates (Maxisorb, Nunc) precoated with type I collagen (3 μg/ml). […] Plates were then washed with PBS, fixed with glutaraldehyde, stained with crystal violet, and washed. Absorbed stain was solubilized with acetic acid from fixed cells and the resulting color signal determined on a MR580Microelisa Auto Reader, (Dynatech, Alexandria, Va.) at 450 nm wavelength.

NO/cGMP signaling = experiment: cGMP signaling (NO-stimulated cGMP, immunoassay); type: cell-based, human; conditions: concentration for 50% inhibition of effect
Procedure: Vascular cells (endothelial) or HT-1080 cells (10^4 cells/well) grown overnight in 12-well culture in SM-GM containing 2% FCS or RPMI+10% FCS respectively and then weaned off serum over 48 h before treatment with NO donors and other agents in serum/additive free medium+0.1% BSA. Intracellular cGMP levels were determined using an enzyme immunoassay (Amersham, GE Health Care, UK). In other experiments fresh washed human platelets were incubated in Tyrode's buffer and the indicated treatment agents±NO and cGMP determined.

[6] = test system: full thickness skin grafts in mice; experiment: Full thickness skin graft (FTSG) model; type: in vivo, mouse; conditions: TSP1-null grafts, agent in drinking water post-operatively
Procedure: Wild type, TSP1 null, CD47 null and CD36 null mice were matched for sex and age. Anesthesia was induced by and maintained with inhalation isoflurane. Body temperature was maintained at 37° C. with a heating pad during the procedure. The dorsal surface was clipped of hair and depilated with Nair®. The skin was then cleansed with surgical soap and alcohol and the animals draped. Using sterile technique, a 1×1 cm FTSG incorporating the panniculus carnosus, subcutaneous tissues and skin were raised. Graft dimensions were marked on the animal skin surface with the aid of a template to insure consistency in dimension. Grafts were in the midline of the animal and secured with four interrupted 5-0 nylon sutures. Sutures were so placed as to include the fascia of the dorsal musculature to provide increased immobilization of grafts to the underlying wound bed Animals were awakened and returned to individual cages and allowed ad libitum access to food and water. Trauma to FTSG was not encountered during the post-operative interval since grafts were located in the dorsal midline over the mid thoracic area and each animal was housed individually following surgery. On postoperative day three or seven, the animals were again anesthetized with inhalation isoflurane and skin graft survival evaluated.
The groups of animals utilized and the treatments received as indicated either at the time of skin grafting and/or during the post-operative interval are summarized in FIG. 21. Animals treated with ISDN (1 mg/ml) or L-NAME (0.5 mg/ml) had ad libitum access to drinking water containing the given concentrations of agents during the post-operative interval. Animals treated with a CD47 monoclonal antibody (Ab clone 301) or an isotype matched control antibody (Ig2α) underwent injection of 40 μg delivered as 10 μl of a 4 mg/ml stock in 100 μl of PBS with equal volumes injected between the wound bed and graft prior to suturing the graft in place. Animals treated with a CD47 morpholino oligonucleotide underwent injection of the FTSG and wound bed with 10 μmol/L in 250 μl of PBS with 125 μl volumes injected in the graft and wound bed, respectively prior to suturing the graft in place.
The necrotic areas of the FTSG were determined by color, refill, eschar, and the pin-prick test. The outlines of viable and nonviable areas were traced using transparent film, and the area of necrosis cut from the template and the area of skin graft necrosis versus total skin graft area determined by comparison of the original template weight to the weight of the cut template utilizing the method described by Ueda (Ueda et al., J Surg Res 80(2):200-204, 1998). Skin graft survival area was presented as the ration of graft survival on post-operative day three or seven divided by the original graft area multiplied by 100%. Additionally, digital images were then acquired using an Olympus C5500 digital camera at a fixed distance (20 cm perpendicular to the animal) under standard room lighting with autoflash and macro settings engaged and uploaded for image analysis of tissue survival with a standard software program (Image-Pro Plus, Media Cybernetics, Inc., Silver Spring, Md.). […]
Skin graft wound beds were assessed at indicated time points (72 hours or 7 days post-operatively) for visible alterations in vascularity under 5× magnification. […] Visible vessels without ramifications and branches were counted once. […]

[7] = test system: random myocutaneous flaps in mice; experiment: Random myocutaneous (McFarlane) flap model; type: in vivo, mouse; conditions: aged TSP1-null animals, agent in drinking water
Procedure: WT and TSP1 null mice were matched for sex and age. Under isoflurane inhalation anesthesia 1×2 cm random myocutaneous flaps were raised. Where indicated, animals received either L-NAME (0.5 mg/ml) or ISDN (1 mg/ml) ad libitum in drinking water during the post-operative period. On postoperative day 7, the animals were again anesthetized with inhalation isoflurane and flaps evaluated. Viable and necrotic areas of the flaps were determined by color, refill, eschar, and the pin-prick test. Outlines of viable and nonviable areas were traced using transparent film and the area of flap necrosis versus total flap area determined as described (Yu et al., Proc Natl Acad Sci USA 102:10999-11004, 2005).
Wild type, TSP1 null, CD36 null and CD47 null mice were matched for sex and age underwent random dorsal myocutaneous flaps as described (Isenberg et al., Blood 2006; Example 2) and tissue harvested on postoperative day 7.
The necrotic area of the flap was determined as described (Isenberg et al., Blood. Nov. 2, 2006) Animals were then euthanized and flaps excised, fixed in 10% paraformaldehyde and processed for histology.
Random myocutaneous flap wound beds and/or ischemic hindlimb vastus medialis muscle was assessed at indicated time points (72 hours or 7 days post-operatively) for visible alterations in vascularity under 5× magnification. An arbitrary though strictly applied definition of countable vessels was employed to highlight both individual vessels and vascular ramifications. In any given vascular plexus visible by 5× magnification a vessel was defined as that segment traversing two branches. Visible vessels without ramifications and branches were counted once. Treatment status and genetic background of tissue images was not known by the reviewer.
Animals underwent creation of a random myocutaneous (McFarlane) flap as previously described (Isenberg et al., Blood 109:1945-1952, 2007). Some animals received either ISDN (1 mg/mL) or L-NAME (0.5 mg/ml) ad libitum in the drinking water during the post-operative interval.
Flap soft tissue units and underling wound beds were injected with control vehicle (normal saline), a CD47 morpholino or a control morpholino (10 μM) in sterile saline. Flap survival was determined as described.

With FIRVVMYEGKK [7N3] the “concentration of maximal inhibition of NO-stimulated endothelial cell adhesion” value (HUVEC) was 10 µM, the “NO-stimulated endothelial cell adhesion on type I collagen” value (HUVEC; 1 h) was “inhibited NO-stimulated endothelial cell adhesion” and the “NO stimulated cGMP in platelets” value (human platelets [1]) was “partially inhibited”. For the same compound, the “concentration sufficient to significantly inhibit the NO delay” value (human platelets [2]) was 10 nM, the “NO delay of thrombin-induced platelet aggregation” value (human platelets [2]; thrombin 0.2 U/ml, DEA/NO 10 μM) was “blocked” and the “NO-stimulated cGMP” value ([3]; CD36 null MASMC) was “completely inhibited”. The “NO-stimulated cGMP” value ([3]; CD47 null MASMC) was “did not significantly inhibit” and the “NO-stimulated vascular cell outgrowth” value [4] was “inhibited vascular cell outgrowth”.

For GAKDFTAYR [C6s], the “NO-stimulated adhesion to type I collagen” value [5] was “not blocked” and the “cGMP signaling IC50” value (NO/cGMP signaling) was “inactive”.

In the case of VTCGGGVQKRSRL [p245], the “NO-stimulated vascular cell outgrowth” value [4] is reported as “inhibited vascular cell outgrowth”.

`O=[N+]([O-])O[C@H]1CO[C@H]2[C@@H]1OC[C@H]2O[N+](=O)[O-]` [ISDN, Isosorbide dinitrate, reference compound] was tested, and the FTSG survival [6] was “not substantially altered” and the flap survival [7] was “did not dramatically alter flap survival”.

For Biotin-IGWKGFTAYR [C6e], the “NO-stimulated adhesion to type I collagen” value [5] was “not blocked” and the “cGMP signaling IC50” value (NO/cGMP signaling) was “inactive”.
